For seven molecules, GI50 and TGI results are on record in PubChem BioAssay (NCI).

SMILES strings stand for the structures.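 Dose response: 5 concentrations. Exposure: 48 h. Format: 96-well plates. Endpoint: linear interpolation; highest concentration if not reached. GI50 = concentration required for 50% inhibition of growth. TGI denotes the concentration required for complete inhibition of growth.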

Among the test systems are IGROV1 ovarian; DU-145 prostate; HOP-62 NSCLC; MCF7 breast; UO-31 renal; OVCAR-5 ovarian; NCI-H226 lung; ACHN renal; SF-295 CNS; SN12C renal.
Common to all, as to assay: growth of human tumour cells (NCI), 48 h

With `CN(C)Cc1c[nH]c2c1C(=O)c1c(c(O)c3ccccc3c1O)C2=O`, the GI50 with IGROV1 ovarian is 3.34 µM; with DU-145 prostate, 0.923 µM; in the assay on HOP-62 NSCLC, 10.7 µM; with MCF7 breast, 3.22 µM; in the assay with UO-31 renal, 8.6 µM; in the assay on OVCAR-5 ovarian, 14.3 µM. Moreover, the GI50 was 17 µM in the assay on NCI-H226 lung, 7.08 µM with ACHN renal, 3.22 µM in the assay with SF-295 CNS and 5.62 µM in the assay on SN12C renal. The TGI in the assay on IGROV1 ovarian was determined as 37.2 µM; with DU-145 prostate, 11.5 µM; in the assay on HOP-62 NSCLC, 27.9 µM; in the assay with MCF7 breast, 15.5 µM; in the assay with UO-31 renal, 29.5 µM; in the assay with OVCAR-5 ovarian, 27.3 µM. Further, the TGI in the assay with NCI-H226 lung is 33.3 µM; with ACHN renal, 20.1 µM; with SF-295 CNS, 17.1 µM; with SN12C renal it was 19.1 µM.

With `COc1ccc(C2C(C#N)=C(N)OC3=C2COc2ccc(F)cc23)cc1OC` (stereo not given), the GI50 in the assay on IGROV1 ovarian was 28.7 µM; in the assay on DU-145 prostate it was 28.2 µM; with HOP-62 NSCLC, 27.9 µM; in the assay on MCF7 breast, 32.9 µM; in the assay on UO-31 renal it was 43.9 µM; in the assay on OVCAR-5 ovarian, 23.7 µM. Further, the GI50 in the assay on NCI-H226 lung is 13.9 µM; in the assay on ACHN renal, 12.3 µM; with SF-295 CNS, 27.5 µM; in the assay with SN12C renal, 20.8 µM. For the same molecule, the TGI in the assay on IGROV1 ovarian is greater than 100 µM; with DU-145 prostate, greater than 100 µM; with HOP-62 NSCLC, greater than 100 µM; with MCF7 breast it was greater than 100 µM; in the assay with UO-31 renal, greater than 100 µM; in the assay on OVCAR-5 ovarian, 80.9 µM. Also, the TGI in the assay with NCI-H226 lung is 51.1 µM; in the assay with ACHN renal, 37.2 µM; in the assay with SF-295 CNS it was 67.5 µM; in the assay on SN12C renal, 89.4 µM.

For the molecule `Cc1cc(NC(=O)c2ccc(C)c(Nc3nccc(-c4cccnc4)n3)c2)cc(-n2cnc(C)c2)c1`, the GI50 was 3.93 µM in the assay on IGROV1 ovarian; 1.96 µM in the assay with DU-145 prostate; 1.68 µM in the assay with HOP-62 NSCLC; 1.86 µM in the assay with MCF7 breast; 1.97 µM with UO-31 renal; 3.54 µM in the assay on OVCAR-5 ovarian. Moreover, the GI50 in the assay with NCI-H226 lung is 1.68 µM; in the assay on ACHN renal it was 0.0734 µM; with SF-295 CNS it was 3.07 µM; in the assay on SN12C renal, 0.005 µM. The TGI was found to be 13.5 µM in the assay with IGROV1 ovarian; 9.06 µM with DU-145 prostate; 6.7 µM in the assay with HOP-62 NSCLC; 9.19 µM in the assay on MCF7 breast; 5.3 µM with UO-31 renal; 10.5 µM in the assay with OVCAR-5 ovarian. The TGI with NCI-H226 lung was 5.39 µM; in the assay with ACHN renal, 3.96 µM; with SF-295 CNS, 12.2 µM; with SN12C renal it was 12.8 µM.

In the case of `Cc1n(Cc2ccc3ccccc3c2)cc[n+]1Cc1ccc2ccccc2c1`, the GI50 was 0.797 µM in the assay on IGROV1 ovarian; 1.87 µM in the assay with DU-145 prostate; 1.6 µM in the assay with HOP-62 NSCLC; 1.1 µM with MCF7 breast; 9.26 µM with UO-31 renal; 1.5 µM with OVCAR-5 ovarian. Moreover, the GI50 with NCI-H226 lung was 1.85 µM; with ACHN renal it was 10.9 µM; in the assay on SF-295 CNS it was 1.83 µM; in the assay with SN12C renal, 1.22 µM. The TGI in the assay with IGROV1 ovarian was 2.87 µM; with DU-145 prostate, 12.1 µM; in the assay with HOP-62 NSCLC it was 8.35 µM; in the assay with MCF7 breast it was 3.33 µM; in the assay on UO-31 renal, 22 µM; in the assay with OVCAR-5 ovarian it was 5.81 µM. The TGI in the assay on NCI-H226 lung was determined as 10.4 µM; in the assay with ACHN renal it was 23.8 µM; in the assay with SF-295 CNS, 7.21 µM; in the assay on SN12C renal it was 10.2 µM.

With `CN1CCc2c(Sc3ccc(C(=O)NO)cc3)c3ccccc3n2C1`, the GI50 with IGROV1 ovarian is 2.84 µM; with DU-145 prostate, 2.57 µM; in the assay with HOP-62 NSCLC, 1.97 µM; in the assay on MCF7 breast it was 2.7 µM; with UO-31 renal, 2.33 µM; with OVCAR-5 ovarian, 2.6 µM. Besides, the GI50 is 2.75 µM in the assay on NCI-H226 lung, 3.04 µM in the assay on ACHN renal, 2.13 µM in the assay on SF-295 CNS and 2.61 µM with SN12C renal. Also, the TGI in the assay with IGROV1 ovarian turned out to be 9.06 µM; in the assay with DU-145 prostate it was 9.37 µM; with HOP-62 NSCLC it was 6.12 µM; in the assay with MCF7 breast, 13.6 µM; in the assay with UO-31 renal, 14.9 µM; in the assay with OVCAR-5 ovarian, 10.7 µM. For the same molecule, the TGI with NCI-H226 lung was found to be 14.9 µM; in the assay on ACHN renal, 12.6 µM; in the assay on SF-295 CNS, 4.84 µM; with SN12C renal it was 9.78 µM.

In the case of `Cc1sc2nc(NCCc3c[nH]c4ccc(Cl)cc34)[nH]c(=O)c2c1C`, the GI50 with IGROV1 ovarian was 3.12 µM; in the assay with DU-145 prostate, 3.59 µM; with HOP-62 NSCLC, 2.52 µM; in the assay with MCF7 breast, 2.47 µM; in the assay with UO-31 renal it was 1.22 µM; with OVCAR-5 ovarian it was 2.97 µM. The GI50 with NCI-H226 lung was 3.18 µM; with ACHN renal, 1.93 µM; in the assay with SF-295 CNS, 3.53 µM; in the assay on SN12C renal, 2.38 µM. Further, the TGI in the assay on IGROV1 ovarian is 13.1 µM; with DU-145 prostate, 13 µM; in the assay with HOP-62 NSCLC it was 10.4 µM; with MCF7 breast, 7 µM; with UO-31 renal it was 2.77 µM; in the assay on OVCAR-5 ovarian, 11.7 µM. Moreover, the TGI with NCI-H226 lung came out at 17.4 µM; with ACHN renal, 4.47 µM; in the assay with SF-295 CNS, 13.4 µM; in the assay with SN12C renal, 6.59 µM.

`Nc1nc(Nc2ccccc2)c2ncn(Cc3cc4c(cc3Br)OCO4)c2n1`: the GI50 was 0.105 µM with IGROV1 ovarian; 0.184 µM in the assay on DU-145 prostate; 0.0675 µM with HOP-62 NSCLC; less than 0.01 µM in the assay on MCF7 breast; 0.129 µM in the assay with UO-31 renal; 0.282 µM with OVCAR-5 ovarian. The GI50 in the assay on NCI-H226 lung is 0.777 µM; in the assay on ACHN renal, 0.0799 µM; in the assay with SF-295 CNS it was 0.037 µM; with SN12C renal, 0.407 µM. Moreover, the TGI is 60.4 µM in the assay on IGROV1 ovarian; 13.7 µM in the assay with DU-145 prostate; 7.65 µM with HOP-62 NSCLC; 31.9 µM in the assay on MCF7 breast; greater than 100 µM with UO-31 renal; greater than 80.3 µM with OVCAR-5 ovarian. The TGI in the assay with NCI-H226 lung was 31.5 µM; in the assay on ACHN renal, 30.4 µM; with SF-295 CNS, 7.27 µM; with SN12C renal, greater than 100 µM.
